# Experimental data: EP2985032B1, “GLYX FOR USE IN THE TREATMENT OF ALZHEIMER'S DISEASE, PARKINSON'S DISEASE OR HUNTINGTON'S DISEASE” (Northwestern University, priority 2009, dated 2019)
# No end group written: not given here.
# Legend:
# [1] = tested on: rats; assay: Open field test of anxiety; assay type: in vivo; details: for increase in the amount of time spent in the center of the field compared to vehicle: Example 6, P < .05
# Procedure: The purpose of this study was to evaluate action of GLYX-13 on anxiety. In order to gauge the effect of GLYX-13 in rats, the open field test of anxiety was conducted. The open field test is a widely used neophobic test of anxiety (see, Treit D, Fundytus M. Thigmotaxis as a test for anxiolytic activity in rats. Pharmachol Biochem Behav 1989;31:959-62.).
# The open field area used for the open field test generally consists of an empty and bright square (or rectangular) arena, surrounded by walls. For the current study, an open field of 45 cm X 35 cm X 20 cm high was used. The rat was placed in the center of the arena and its behavior recorded over a predefined period of time (usually between 2 to 15 min). The open field test is based on the natural tendency of the rats to avoid open spaces. The open field test is based on the conflict between the innate anxiety that rats have of the central area of the open space versus their desire to explore new environments. When rats are in an anxious state, they have a natural tendency to stay near the walls. This natural tendency of the rats to stay close to the walls is called thigmotaxis. In this context, anxiety-related behavior is measured by the degree to which the rat avoids the center of the open field test. Determining the propensity of the rat to avoid the open field can be determined by measuring the number of center crosses made by the rats over a predefined interval of time, or by determining the amount of time the rat stays in the center of the field.
# (§1) In order to evaluate the effectiveness of GLYX-13 as an anxiolytic, two groups of three month old FBNF1 rats were used. The first group was composed of 13 rats and the second group was composed of 11 rats. The first group of rats was intravenously injected with 10 mg/kg GLYX-13 and the second group of rats was intravenously injected with PBS vehicle (1 ml/kg) in a blind manner via chronic […] femoral vein access ports. Both groups of rats were injected 10 to 15 minutes before the start of testing. After GLYX-13 injections, both groups of rats were tested in the open field.
# For the open field test, rats were habituated to the open field for 2 minutes each day for three consecutive days before the final 2 minute test session in which GLYX-13 or vehicle was administered. Open field activity was recorded by a video camera mounted above the open field area, and number of center crosses in the open field was measured.
# A second experiment was performed in the same manner as Example 3, except that groups of 8-10 two- to three-month old male Sprague-Dawley rats pretreated with either intravenous (1, 3, 10, 32 mg / kg), subcutaneous (1, 3, 10, 32, 56, 100 mg / kg) injections of GLYX-13, ketamine (10 mg/kg i.p.) or saline vehicle (1 mg / ml) 15 min (i.v.), 20 (s.c.) or 60 (i.p.) min before the start of the 5 min test session. Each data point represents a group of 8-10 rats. The average (mean) amount of time animals spent in the center of the field was measured.
# To evaluate whether the anti-depressive and anxiolytic effects of GLYX-13 would persist beyond a few hours, rats were tested in the Porsot test and the Open Field test, described above. […] Mean (± SEM) time (sec.) spent floating in the Porsolt test, time spent in the center compartment (sec.), and line crosses in the open field test were determined.
# [2] = tested on: rats; assay: Porsolt test (Forced Swim Test) of depression; assay type: in vivo; design: Mean Immobility Time: unit not given beside the values; details: for maximum reduction in floating compared to saline vehicle / Mean Immobility Time: Example 2; for maximum reduction in floating compared to saline vehicle: P < .01
# Procedure: For the evaluation of the antidepressant actions of GLYX-13, the effect of GLYX-13 in the Porsolt test of depression was examined in rats. Porsolt testing is the most commonly used test for assessment of depression in animal model. Porsolt testing, also known as Forced Swim Test, is based on a behavioral trait that is sensitive to changes in affective state. During this test, the animal is placed in a tank (18 cm diameter x 45 cm height) filled to 30 cm with 22-23°C water. After placing the animal in the tank, the amount of time for which the rat is immobile when it stops struggling is measured. Porsolt test is based on the fact that antidepressants increase the latency to immobility and decrease the time for which the rat is immobile. […] The interpretation of the Porsolt test is that the antidepressants reinstate active coping mechanisms and decrease the passive immobility evoked by stress.
# In order to evaluate the effectiveness of GLYX-13 as antidepressant, three month old FBNF1 rats were separated into two groups of 9 animals. The first group of rats was intravenously injected with 10 mg/kg GLYX-13 and the second group of animals was intravenously injected with PBS vehicle (1 ml/kg) in a blind manner via chronic subdural femoral vein access ports. Both groups of animals were injected 10 to 15 minutes before the start of testing.
# For Porsolt testing, animals were given a 15 minute pre-test habituation in the tank to induce learned helplessness on day one. Following this, on the subsequent day, the animals were injected with GLYX-13 or vehicle 10-15 minutes before being placed into the tank for a 5 minute test session. After placing the animals in the tank, the amount of time for which each animal is immobile when it stops struggling (Mean Immobility Time) was measured. Decrease in Mean Immobility Time is a measure of the effectiveness of the antidepressant.
# A second experiment was performed in the same manner as Example 1, except that 2-3 month Sprague-Dawley rats were used, and treated with either intravenous (1, 3, 10, 32 mg / kg), subcutaneous (1,3, 10, 32, 56, 100 mg / kg) injections of GLYX-13 or saline vehicle (1 mg / ml) 15 (i.v.) or 20 (s.c.) min before the start of the final 5 min test session. Ketamine (10 mg / kg i.p.) was given 60 min before the start of testing (Garcia et al., (2008) Prog Neuropsychopharmacol Biol Psychiatry, 32, 140-144). Subcutaneous administration of 10 mg/kg ketamine followed by testing after 20 min post dosing produced severe dissociative side effects, as shown in Figure 3.
# To determine whether GLYX-13 acts in an area of the brain that is clinically relevant for depression, GLYX-13 was administered to either the medial prefrontal cortex (MPFC), which is associated with mood and depression, or to the motor cortex (Fig. 4). Mean time spent immobile in the Porsolt test was determined for groups of 10 three-month old male Fisher Brown Norway F1 (FBNF1) rats pretreated with a single injection of GLYX-13 (1, 10 ug / side) or a single saline vehicle injection (0.5 ul / 1 min) bilaterally into the medial prefrontal cortex or motor cortex (dorsal control) in animals with surgically implanted chronic indwelling cannulae aimed at the MPFC. Microinjections were made 1 week after surgery, and Porsolt testing was conducted 20 min post injection. Animals received a single 15 min training swim session one day before dosing.
# To determine whether the antidepressant effect of GLYX-13 was specific to the sequence of the GLXY-13 peptide, mean time (sec) spent floating in the Porsolt test was determined in groups of 12 three-month old Sprague Dawley rats administered with GLYX-13 (TPPT-NH2; 3 mg / kg, i.v. tail vein), a scrambled peptide ([…]; 3 mg / kg i.v. tail vein), or 0.9% saline vehicle (1 ml / kg, i.v. tail vein). Administration occurred 60 min before the 5 min. testing session. Animals received a 15 min. training swim session one day before dosing. […]
# [3] = tested on: rats; assay: Porsolt test (Forced Swim Test) of depression; assay type: in vivo; design: Mean Immobility Time: unit not given beside the values
# [4] = tested on: rats; assay: 50-kHz ultrasonic vocalizations model of positive affect (rough-and-tumble play); assay type: in vivo; details: Example 8; 10 mg/kg i.v., 10-15 min before test; FBNF1 rats; Mean ± SEM; P < .01
# Text: To evaluate the hedonic effect of GLYX-13 in this study, the 50-kHz ultrasonic vocalizations model of positive affect was examined in rats (see, Burgdorf, J., Panksepp, J., Brudzynski, S.M., Kroes, R.A. & Moskal, J.R. (2008). The effect of selective breeding for differential rates of 50-kHz ultrasonic vocalizations on emotional behavior in rats. Devel. Psychobiology, 51, 34-46.).
# as §1, with “As a part of” for “In order to evaluate”, “study,” for “effectiveness of GLYX-13 as an anxiolytic,”, “10mg/kg” for “10 mg/kg”, “test.” for “testing. After GLYX-13 injections, both groups of rats were tested in the open field.”
# For hedonic ultrasonic vocalizations (USVs), animals received 2 minutes of heterospecific RTP habituation before the final 2 minutes test session.
# [5] = tested on: rat hippocampal organotypic cultures; assay: LTP / LTD in hippocampal organotypic cultures; assay type: cell-based; details: in vitro
# [6] = Example 7, 3 mg / kg i.v., Sprague-Dawley rats
substance,measurement,setting,value
"L-threonyl-L-prolyl-L-prolyl-L-threonine amide (TPPT-NH2) [GLYX-13, NMDAR glycine-site partial agonist]",increase in center crosses compared to vehicle,"[1]; Example 5, 10 mg/kg i.v., 10-15 min before test, FBNF1 rats, Mean ± SEM, P < .005",172.6 ± 34.3%
same,increase in the amount of time spent in the center of the field compared to vehicle,"[1]; intravenous administration, 15 min before test, Sprague-Dawley rats, Mean ± SEM",42± 5%
same,increase in the amount of time spent in the center of the field compared to vehicle,"[1]; subcutaneous administration, 20 min before test, Sprague-Dawley rats, Mean ± SEM",36 ± 5%
same,increase in mean center time compared to saline control,"[1]; Example 7, 3 mg / kg i.v., tested 120 hrs post dosing, Sprague-Dawley rats, mean ± SEM",125% ± 5
same,duration of anxiolytic effects of a single administration,[1]; [6],up to 5 days
same,reduction in floating compared to PBS vehicle,"[2]; Example 1, 10 mg/kg i.v., 10-15 min before test, three month old FBNF1 rats, Mean ± SEM, P < .0001",56.4 ± 4.6%
same,maximum reduction in floating compared to saline vehicle,"[2]; administered intravenously, Sprague-Dawley rats, Mean ± SEM",50 ± 10%
same,maximum reduction in floating compared to saline vehicle,"[2]; administered subcutaneously, Sprague-Dawley rats, Mean ± SEM",43 ± 7%
same,Mean Immobility Time,"[2]; i.v., dose 3 (mg/kg), 15 min before test, Sprague-Dawley rats",66.14 ±27.53
same,Mean Immobility Time,"[2]; i.v., dose 10 (mg/kg), 15 min before test, Sprague-Dawley rats",60.6 ±14.7
same,Mean Immobility Time,"[2]; i.v., dose 32 (mg/kg), 15 min before test, Sprague-Dawley rats",87.19±17.85
same,Mean Immobility Time,"[2]; s.c., dose 1 (mg/kg), 20 min before test, Sprague-Dawley rats",135.5 ±22.0
same,Mean Immobility Time,"[2]; s.c., dose 3 (mg/kg), 20 min before test, Sprague-Dawley rats",100.2 ±15.7
same,Mean Immobility Time,"[2]; s.c., dose 10 (mg/kg), 20 min before test, Sprague-Dawley rats",76.9 ±9.7
same,Mean time spent immobile,"[2]; Example 3, MPFC injection, dose 1 (ug / side), FBNF1 rats, Mean ± SEM",53.46 ±10.65
same,Mean time spent immobile,"[2]; Example 3, MPFC injection, dose 10 (ug / side), FBNF1 rats, Mean ± SEM",62.54±8.7
same,reduction in floating compared to a saline control or to GLYX-13 injected into motor cortex,"[2]; Example 3, injected bilaterally into the MPFC, FBNF1 rats, 20 min post injection, Mean ± SEM",50 ± 5%
same,Mean time spent immobile,"[2]; Example 3, injected into motor cortex (dorsal control), FBNF1 rats, Mean ± SEM",113.7 ±13.1
same,reduction in mean floating time compared to saline injection or scrambled peptide,"[2]; Example 4, 3 mg / kg i.v. tail vein, 60 min before test, Sprague Dawley rats, Mean ± SEM",70 ± 5%
same,reduction in mean floating time compared to saline control,"[2]; Example 7, 3 mg / kg i.v., tested 96 hrs post dosing, Sprague-Dawley rats, mean ± SEM",82% ± 2
same,duration of antidepressant effects of a single administration,[2]; [6],up to 4 days
same,onset of action,"[2]; single dose, rats",within minutes
same,Mean Immobility Time,"[3]; Example 2, i.v., dose printed as 2, 15 min before test, Sprague-Dawley rats",84.9 ±15.0
same,Mean time spent immobile,"[3]; Example 3, MPFC injection, dose 0.1 (ug / side), FBNF1 rats, Mean ± SEM",108.77 ±12.34
same,increase in rates of play-induced positive affective 50-kHz USVs compared to vehicle,[4],178.5 ± 48.3%
same,long-term depression (LTD),[5],reducing
same,long-term potentiation (LTP),[5],markedly elevate
